In series [1] the test system is Liver microsome. Briefly: Reversal of thioacetamide-induced CYP1A2 inactivation in rat liver microsomes at 2 to 50 uM in presence of NADPH. The series is classed as functional. A general note: Liver microsomes are vesicles of endoplasmic reticulum, rich in cytochrome P450 enzymes.
Series [2] relates to Rattus norvegicus. The series can be described thus: Upregulation of CYP2C6 in Sprague-Dawley rat liver at 200 mg/kg administered intragastrically qd for 2 weeks by Western blotting analysis. The series is classed as ADME, organism-based. On the set-up: dose 200 mg/kg, route intragastric. As to conditions: in vivo, po, 336 h. (A western blot detects proteins with antibodies after separation by electrophoresis.)

In series [3] the test system is Liver microsome. Briefly: Reversal of thioacetamide-induced CYP2C6 inactivation in rat liver microsomes at 0.2 to 5 mM in presence of NADPH. The series is classed as functional.
The test system of series [4] is Rattus norvegicus. The series can be described thus: Hepatoprotective activity in thioacetamide-induced Sprague-Dawley rat liver cirrhosis model assessed as downregulation of CYP2C6 protein level at 200 mg/kg administered intragastrically qd for 2 weeks by Western blotting analysis relative to control. The series is classed as functional, organism-based. Set-up: dose 200 mg/kg.

Series [5] relates to Rattus norvegicus. The series can be described thus: Hepatoprotective activity in thioacetamide-induced Sprague-Dawley rat liver cirrhosis model assessed as reversal of thioacetamide-induced change in serum TBIL level at 200 mg/kg administered intragastrically qd for 2 weeks by […]. The series is classed as functional, organism-based. On the set-up: dose 200 mg/kg.

The subject of series [6] is Rattus norvegicus. Briefly: Upregulation of CYP2E1 in Sprague-Dawley rat liver at 200 mg/kg administered intragastrically qd for 2 weeks by Western blotting analysis. It counts as ADME, organism-based. Set-up: dose 200 mg/kg, route intragastric. As to conditions: in vivo, po, 336 h.
For series [7], the system named is Liver microsome. The series can be described thus: Reversal of thioacetamide-induced CYP2E1 inactivation in rat liver microsomes at 2 to 50 uM in presence of NADPH. The series is classed as functional.
Series [8] concerns Rattus norvegicus. The series can be described thus: Hepatoprotective activity in thioacetamide-induced Sprague-Dawley rat liver cirrhosis model assessed as downregulation of CYP1A2 protein level at 200 mg/kg administered intragastrically qd for 2 weeks by Western blotting analysis relative to control. It counts as functional, organism-based. Set-up: dose 200 mg/kg.
Series [9] relates to Rattus norvegicus. The series can be described thus: Hepatoprotective activity in thioacetamide-induced Sprague-Dawley rat liver cirrhosis model assessed as downregulation of CYP2E1 protein level at 200 mg/kg administered intragastrically qd for 2 weeks by Western blotting analysis relative to control. It counts as functional. As to conditions: route intragastric.
For series [10], the system named is Rattus norvegicus. The series can be described thus: Hepatoprotective activity in thioacetamide-induced Sprague-Dawley rat liver cirrhosis model assessed as reversal of thioacetamide-induced change in serum ALT level at 200 mg/kg administered intragastrically qd for 2 weeks by […]. It counts as functional, organism-based. On the set-up: dose 200 mg/kg.

Series [11] has as its system Rattus norvegicus. The series can be described thus: Hepatoprotective activity in thioacetamide-induced Sprague-Dawley rat liver cirrhosis model assessed as downregulation of CYP3A2 protein level at 200 mg/kg administered intragastrically qd for 2 weeks by Western blotting analysis relative to control. As to conditions: route intragastric. It counts as functional.
Series [12] relates to Liver microsome. Briefly: Reversal of thioacetamide-induced CYP2E1 inactivation in rat liver microsomes at 0.2 to 5 mM in presence of NADPH. It counts as functional.
The test system of series [13] is Rattus norvegicus. The series can be described thus: Hepatoprotective activity in thioacetamide-induced Sprague-Dawley rat liver cirrhosis model assessed as reversal of thioacetamide-induced change in serum AST level at 200 mg/kg administered intragastrically qd for 2 weeks by […]. It counts as functional, organism-based. On the set-up: dose 200 mg/kg.

Series [14] has as its system Rattus norvegicus. The series can be described thus: Upregulation of CYP3A2 in Sprague-Dawley rat liver at 200 mg/kg administered intragastrically qd for 2 weeks by Western blotting analysis. The settings on record: in vivo, po, 336 h. It counts as ADME, organism-based. On the set-up: dose 200 mg/kg, route intragastric.
For series [15], the system named is Liver microsome. The series can be described thus: Reversal of thioacetamide-induced CYP2C6 inactivation in rat liver microsomes at 2 to 50 uM in presence of NADPH. The series is classed as functional.
Series [16] relates to Liver microsome. Briefly: Reversal of thioacetamide-induced CYP3A2 inactivation in rat liver microsomes at 2 to 50 uM in presence of NADPH. The series is classed as functional.
For series [17], the system named is Liver microsome. Briefly: Reversal of thioacetamide-induced CYP1A2 inactivation in rat liver microsomes at 0.2 to 5 mM in presence of NADPH. The series is classed as functional.
In series [18] the test system is Liver microsome. The series can be described thus: Reversal of thioacetamide-induced CYP3A2 inactivation in rat liver microsomes at 0.2 to 5 mM in presence of NADPH. It counts as functional.
Series [19] deals with Rattus norvegicus. Briefly: Downregulation of CYP1A2 in Sprague-Dawley rat liver at 200 mg/kg administered intragastrically qd for 2 weeks by Western blotting analysis. The settings on record: in vivo, po, 336 h. It counts as ADME, organism-based. Set-up: dose 200 mg/kg, route intragastric.

Each structure is given as a SMILES string. The source made the active and inactive calls. The rule behind the calls is not given here.

On to `COC(=O)c1cc(OC)c2c(c1-c1c(C(=O)OC)cc(OC)c3c1OCO3)OCO2` [BIFENDATE], for which the result in the series on Liver microsome [1], in the series on Liver microsome [3], with Liver microsome [7], in the series on Liver microsome [12], in the series on Liver microsome [15] and with Liver microsome [16] was inactive. Besides, the result in the series on Liver microsome [17] and in the series on Liver microsome [18] was inactive. Moreover, the result in the series with Rattus norvegicus [2], in the series on Rattus norvegicus [6], in the series on Rattus norvegicus [14] and with Rattus norvegicus [19] was Active. Besides, the result in the series with Rattus norvegicus [4], in the series on Rattus norvegicus [5], in the series with Rattus norvegicus [8], in the series with Rattus norvegicus [10] and in the series on Rattus norvegicus [13] was Active. For the same compound, the “fold change (FC)” value is 2.26 with Rattus norvegicus [9] and 1.56 with Rattus norvegicus [11].
